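Step 1: Grow cells in 96-well plates. Step 2: Expose to compound for 48 hours at 5 concentrations. Step 3: Interpolate endpoints linearly; if unreached, use highest concentration. GI50 is the concentration that inhibits growth by half. Definition used: TGI = concentration required for complete inhibition of growth.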
Assays:
Assay in all cases: NCI-60 cell line screen, 48 h; in the data active means GI50 below about 0.43 µM; inactive means the rest
[1] = system: SK-MEL-5 melanoma
[2] = system: SK-MEL-2 melanoma
[3] = system: ACHN renal
[4] = system: COLO 205 colon
[5] = system: SF-539 CNS
[6] = system: TK-10 renal
[7] = system: T-47D breast
[8] = system: SW-620 colon
[9] = system: SN12C renal
[10] = system: CAKI-1 renal
[11] = system: NCI/ADR-RES ovarian
[12] = system: NCI-H522 lung
[13] = system: OVCAR-5 ovarian
[14] = system: SF-295 CNS
[15] = system: MCF7 breast
[16] = system: PC-3 prostate
[17] = system: HCT-15 colon
[18] = system: HOP-92 NSCLC
[19] = system: MDA-N
[20] = system: A498 renal
[21] = system: LOX IMVI melanoma
[22] = system: KM12 colon
[23] = system: EKVX NSCLC
[24] = system: IGROV1 ovarian
[25] = system: OVCAR-8 ovarian
[26] = system: SNB-75 CNS
[27] = system: BT-549 breast
[28] = system: SR leukemia
[29] = system: SNB-19 CNS
[30] = system: SK-MEL-28 melanoma
[31] = system: U251 CNS
[32] = system: MALME-3M melanoma
[33] = system: NCI-H226 lung
[34] = system: UO-31 renal
[35] = system: HCC-2998 colon
[36] = system: HL-60(TB) leukemia
[37] = system: MDA-MB-435
[38] = system: RXF 393 renal
[39] = system: OVCAR-3 ovarian
[40] = system: RPMI-8226 leukemia
[41] = system: UACC-257 melanoma
[42] = system: HS 578T breast
[43] = system: K-562 leukemia
[44] = system: MDA-MB-231 breast
[45] = system: DU-145 prostate
[46] = system: CCRF-CEM leukemia
[47] = system: UACC-62 melanoma
[48] = system: A549 NSCLC
[49] = system: MOLT-4 leukemia
[50] = system: NCI-H460 lung
[51] = system: M14 melanoma
[52] = system: HCT-116 colon
[53] = system: OVCAR-4 ovarian
[54] = system: SF-268 CNS
[55] = system: 786-0 renal
[56] = system: LXFL 529 NSCLC
[57] = system: SK-OV-3 ovarian
[58] = system: XF 498 CNS
[59] = system: DMS 273 small cell lung
[60] = system: HOP-62 NSCLC
[61] = system: M19-MEL melanoma
[62] = system: DMS 114 small cell lung
[63] = system: DLD-1 colon
[64] = system: NCI-H23 lung
[65] = system: HT29 colon
[66] = system: KM20L2 colon
[67] = system: SNB-78 CNS

O=C(Nc1ccc(Cl)cc1)c1cc(S(=O)(=O)N2CCNNC2=O)c(S)cc1Cl
96.1 µM: TGI [18]
> 100 µM: TGI [1] | TGI [2] | TGI [3] | TGI [4] | TGI [5] | TGI [6] | TGI [7] | TGI [8] | TGI [9] | TGI [10] | TGI [11] | TGI [12] | TGI [13] | TGI [14] | TGI [15] | TGI [16] | TGI [17] | TGI [19] | TGI [20] | TGI [21] | TGI [22] | TGI [23] | TGI [24] | TGI [25] | TGI [26] | TGI [27] | TGI [28] | TGI [29] | TGI [30] | TGI [31] | TGI [32] | TGI [33] | TGI [34] | TGI [35] | TGI [36] | TGI [37] | TGI [39] | TGI [40] | TGI [41] | TGI [42] | TGI [43] | TGI [44] | TGI [45] | TGI [46] | TGI [47] | TGI [48] | TGI [49] | TGI [50] | TGI [51] | TGI [52] | TGI [53] | TGI [54] | TGI [55]
53.2 µM: TGI [38]

O=c1n(CC2CS2)c2ccccc2n1CC1CS1 (stereo unspecified)
79.7 µM: TGI [46]
74.4 µM: TGI [32]
88.6 µM: TGI [40]
> 100 µM: TGI [2] | TGI [3] | TGI [4] | TGI [56] | TGI [9] | TGI [10] | TGI [12] | TGI [17] | TGI [18] | TGI [21] | TGI [22] | TGI [23] | TGI [24] | TGI [57] | TGI [26] | TGI [28] | TGI [58] | TGI [35] | TGI [59] | TGI [36] | TGI [39] | TGI [43] | TGI [60] | TGI [47] | TGI [51] | TGI [61] | TGI [53] | TGI [62] | TGI [54]
69.1 µM: TGI [49]
70.1 µM: TGI [52]

CC1CCc2c(sc3ncnc(N/N=C/c4ccc(Cl)cc4)c23)C1 (stereo unspecified)
57.3 µM: TGI [49]
91.2 µM: TGI [38]
70.3 µM: TGI [41]
55 µM: TGI [28]
68.2 µM: TGI [51]
37.2 µM: TGI [1]
43.5 µM: TGI [36]
75.5 µM: TGI [14]
48.1 µM: TGI [43]
70.6 µM: TGI [21]
65.1 µM: TGI [12]
89.5 µM: TGI [10]
62.7 µM: TGI [66]
29.7 µM: TGI [34]
94.9 µM: TGI [3]
81.6 µM: TGI [23]
44.4 µM: TGI [33]
> 100 µM: TGI [2] | TGI [4] | TGI [6] | TGI [8] | TGI [9] | TGI [63] | TGI [13] | TGI [17] | TGI [24] | TGI [25] | TGI [57] | TGI [26] | TGI [64] | TGI [30] | TGI [31] | TGI [32] | TGI [35] | TGI [59] | TGI [65] | TGI [39] | TGI [40] | TGI [60] | TGI [47] | TGI [48] | TGI [50] | TGI [52] | TGI [54] | TGI [55]
93 µM: TGI [29]

CN1C2(c3ccccc3)C(C(=O)c3ccccc3)=C(C(=O)c3ccccc3)C1(c1ccccc1)c1c(-c3ccccc3)sc(-c3ccccc3)c12
> 100 µM: TGI [1] | TGI [3] | TGI [4] | TGI [5] | TGI [56] | TGI [6] | TGI [67] | TGI [8] | TGI [9] | TGI [10] | TGI [63] | TGI [12] | TGI [13] | TGI [14] | TGI [17] | TGI [18] | TGI [20] | TGI [21] | TGI [22] | TGI [23] | TGI [24] | TGI [25] | TGI [57] | TGI [26] | TGI [28] | TGI [64] | TGI [29] | TGI [30] | TGI [31] | TGI [32] | TGI [33] | TGI [34] | TGI [35] | TGI [59] | TGI [65] | TGI [36] | TGI [38] | TGI [39] | TGI [40] | TGI [41] | TGI [66] | TGI [43] | TGI [60] | TGI [46] | TGI [47] | TGI [48] | TGI [50] | TGI [51] | TGI [52] | TGI [61] | TGI [53] | TGI [62] | TGI [54] | TGI [55]

CC(C)C(=O)/C=C/c1c(Cl)cccc1Cl
8.94 µM: TGI [44]
22.4 µM: TGI [4]
7.99 µM: TGI [2]
5.68 µM: TGI [50]
11.9 µM: TGI [22]
8.38 µM: TGI [26]
17.9 µM: TGI [32]
9.27 µM: TGI [57]
14.2 µM: TGI [24]
26 µM: TGI [23]
29 µM: TGI [35]
24.3 µM: TGI [14]
3.11 µM: TGI [12]
9.23 µM: TGI [11]
17.7 µM: TGI [60]
7.44 µM: TGI [5]
8.01 µM: TGI [33]
11.7 µM: TGI [31]
10.5 µM: TGI [54]
9.4 µM: TGI [53]
26.6 µM: TGI [18]
20.5 µM: TGI [30] | TGI [41]
16.2 µM: TGI [3]
11.2 µM: TGI [65]
14.7 µM: TGI [37]
13.8 µM: TGI [10]
6.69 µM: TGI [51]
24.4 µM: TGI [16]
19.1 µM: TGI [47]
11.8 µM: TGI [19] | TGI [45]
9.81 µM: TGI [27]
13.6 µM: TGI [9] | TGI [25]
6.56 µM: TGI [39]
15.8 µM: TGI [15]
9.72 µM: TGI [42]
7.32 µM: TGI [21]
22.6 µM: TGI [29]
24.5 µM: TGI [6]
9.13 µM: TGI [8]
35.5 µM: TGI [20]
20.1 µM: TGI [55]
11.3 µM: TGI [13]
5.83 µM: TGI [52]
21.9 µM: TGI [48]
9.31 µM: TGI [7]
16 µM: TGI [34]
18.2 µM: TGI [1]
19 µM: TGI [38]
> 100 µM: TGI [28] | TGI [36] | TGI [40] | TGI [43] | TGI [46] | TGI [49]
7.24 µM: TGI [64]
17.8 µM: TGI [17]

CN(Cc1cnc2nc(N)nc(N)c2n1)c1ccc(C(=O)NCCCC(=O)O)cc1
> 100 µM: TGI [1] | TGI [2] | TGI [4] | TGI [5] | TGI [6] | TGI [7] | TGI [8] | TGI [9] | TGI [10] | TGI [11] | TGI [12] | TGI [13] | TGI [14] | TGI [15] | TGI [16] | TGI [17] | TGI [18] | TGI [19] | TGI [20] | TGI [21] | TGI [22] | TGI [23] | TGI [24] | TGI [25] | TGI [57] | TGI [26] | TGI [27] | TGI [28] | TGI [64] | TGI [29] | TGI [30] | TGI [31] | TGI [32] | TGI [33] | TGI [34] | TGI [35] | TGI [65] | TGI [36] | TGI [37] | TGI [38] | TGI [39] | TGI [40] | TGI [41] | TGI [42] | TGI [43] | TGI [60] | TGI [44] | TGI [45] | TGI [46] | TGI [47] | TGI [48] | TGI [49] | TGI [50] | TGI [51] | TGI [52] | TGI [53] | TGI [54] | TGI [55]
> 71.2 µM: TGI [3]

Cc1ncc(CBr)c(CBr)c1O
> 100 µM: TGI [2] | TGI [3] | TGI [4] | TGI [5] | TGI [56] | TGI [67] | TGI [9] | TGI [10] | TGI [63] | TGI [12] | TGI [18] | TGI [20] | TGI [24] | TGI [57] | TGI [26] | TGI [28] | TGI [64] | TGI [30] | TGI [32] | TGI [58] | TGI [33] | TGI [34] | TGI [35] | TGI [59] | TGI [36] | TGI [40] | TGI [43] | TGI [60] | TGI [46] | TGI [47] | TGI [49] | TGI [51] | TGI [52] | TGI [61] | TGI [53] | TGI [62] | TGI [54] | TGI [55]

COc1cccc(/C=N/[N-]C(N)=O)c1[O-].[Co+2].[OH3+].c1ccncc1
inactive: GI50 [36] 30.8 µM
> 100 µM: TGI [1] | TGI [2] | TGI [3] | TGI [4] | TGI [5] | TGI [8] | TGI [9] | TGI [10] | TGI [12] | TGI [13] | TGI [14] | TGI [17] | TGI [18] | TGI [21] | TGI [22] | TGI [23] | TGI [24] | TGI [25] | TGI [57] | TGI [26] | TGI [64] | TGI [30] | TGI [31] | TGI [32] | TGI [33] | TGI [34] | TGI [35] | TGI [65] | TGI [36] | TGI [38] | TGI [39] | TGI [40] | TGI [41] | TGI [66] | TGI [60] | TGI [46] | TGI [47] | TGI [48] | TGI [49] | TGI [50] | TGI [51] | TGI [52] | TGI [53] | TGI [54] | TGI [55]
